# Measured values: patent US9302999B2, “Substituted triazoles as herbicides” (E. I. DU PONT DE NEMOURS AND COMPANY, priority 2012, dated 2016)
# What was measured:
# Assay type in all cases: in vivo
# wild oat (Avena fatua) = assay: Test C pre-/postemergence: wild oat
# Summary of the method: (§1)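 Preemergence on seeds in loam/sand, postemergence on 2–18 cm (1–4-leaf) plants in peat-based medium; compounds in non-phytotoxic solvent with surfactant. After 13–15 days in greenhouse, visual rating versus controls, 0 (no effect) to 100 (complete control).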
# soybean (Glycine max) = assay: Test C pre-/postemergence: soybean
# Summary of the method: as §1
# [1] = tested on: foxtail, giant (giant foxtail, Setaria faberii); assay: Test A pre-/postemergence: foxtail, giant
# Summary of the method: (§2)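 Visual 0–100 injury ratings (0 no effect, 100 complete control) taken about ten days after treatment, relative to untreated controls. Preemergence treatment was a directed soil spray; postemergence plants were 2–10 cm tall at one- to two-leaf stage. Soil: loam/sand blend.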
# [2] = tested on: winter wheat (Triticum aestivum); assay: Test C pre-/postemergence: winter wheat
# Summary of the method: as §1
# [3] = tested on: pigweed (Amaranthus retroflexus); assay: Test C pre-/postemergence: pigweed
# Summary of the method: as §1
# [4] = tested on: crabgrass, large (large crabgrass, Digitaria sanguinalis); assay: Test A pre-/postemergence: crabgrass, large
# Summary of the method: as §2
# [5] = tested on: ragweed (common ragweed, Ambrosia elation); assay: Test C pre-/postemergence: ragweed
# Summary of the method: as §1
# [6] = tested on: velvetleaf (Abutilon theophrasti); assay: Test C pre-/postemergence: velvetleaf
# Summary of the method: as §1
# corn (Zea mays) = assay: Test A pre-/postemergence: corn
# Summary of the method: as §2
# [7] = tested on: foxtail, giant (giant foxtail, Setaria faberii); assay: Test C pre-/postemergence: foxtail, giant
# Summary of the method: as §1
# [8] = tested on: large crabgrass (Digitaria sanguinalis); assay: Test C pre-/postemergence: large crabgrass
# Summary of the method: as §1
# kochia (Kochia scoparia) = assay: Test C pre-/postemergence: kochia
# Summary of the method: as §1
# [9] = Postemergence, 31 g ai/ha, scale 0 to 100 (0 no effect, 100 complete control)
# [10] = Postemergence, 62 g ai/ha, scale 0 to 100 (0 no effect, 100 complete control)
# [11] = Postemergence, 125 g ai/ha, scale 0 to 100, 0 no effect, 100 complete control
# [12] = Postemergence, 250 g ai/ha, scale 0 to 100
# [13] = Postemergence, 125 g ai/ha, 0 to 100 scale, 0 is no effect, 100 is complete control
# [14] = Postemergence, 500 g ai/ha, visual rating on 0 to 100 scale (0 no effect, 100 complete control), approximately ten days
# [15] = Preemergence, 125 g ai/ha, 0 to 100 scale where 0 is no effect and 100 is complete control
# [16] = Preemergence, 500 g ai/ha, 0 to 100 scale (0 no effect, 100 complete control)
# [17] = Preemergence, 31 g ai/ha, scale of 0 to 100, 0 is no effect, 100 is complete control
# [18] = Preemergence, 62 g ai/ha, scale of 0 to 100, 0 is no effect, 100 is complete control
# [19] = Preemergence, 125 g ai/ha, scale 0 to 100, 0 no effect, 100 complete control
# [20] = Preemergence, 250 g ai/ha, scale 0 to 100, 0 no effect, 100 complete control
structure (smiles),measurement,setting,value
Cc1nn(-c2ccnc(C(F)(F)F)c2)nc1Cc1ccnc(C(F)(F)F)c1 [Compound 137],"Plant response rating, Oat, Wild",wild oat (Avena fatua); [9],45
same,"Plant response rating, Oat, Wild",wild oat (Avena fatua); [10],50
same,"Plant response rating, Oat, Wild",wild oat (Avena fatua); [11],50
same,"Plant response rating, Oat, Wild",wild oat (Avena fatua); [12],70
same,"Plant response rating, Soybean",soybean (Glycine max); [9],40
same,"Plant response rating, Soybean",soybean (Glycine max); [10],55
same,"Plant response rating, Soybean",soybean (Glycine max); [11],55
same,"Plant response rating, Soybean",soybean (Glycine max); [12],60
same,"Foxtail, Giant plant response rating",[1]; [13],90
same,"Foxtail, Giant plant response rating",[1]; [14],90
same,"Plant response rating, Foxtail, Giant",[1]; [15],90
same,"Plant response rating, Foxtail, Giant",[1]; [16],90
same,"Plant response rating, Wheat",[2]; [9],10
same,"Plant response rating, Wheat",[2]; [10],15
same,"Plant response rating, Wheat",[2]; [11],30
same,"Plant response rating, Wheat",[2]; [12],35
same,"Plant response rating, Pigweed",[3]; [9],98
same,"Plant response rating, Pigweed",[3]; [10],100
same,"Plant response rating, Pigweed",[3]; [11],100
same,"Plant response rating, Pigweed",[3]; [12],100
same,"Crabgrass, Large plant response rating",[4]; [13],90
same,"Crabgrass, Large plant response rating",[4]; [14],90
same,"Plant response rating, Crabgrass, Large",[4]; [15],90
same,"Plant response rating, Crabgrass, Large",[4]; [16],90
same,"Plant response rating, Ragweed",[5]; [9],65
same,"Plant response rating, Ragweed",[5]; [11],75
same,"Plant response rating, Ragweed",[5]; [12],85
same,"Plant response rating, Velvetleaf",[6]; [9],35
same,"Plant response rating, Velvetleaf",[6]; [10],55
same,"Plant response rating, Velvetleaf",[6]; [11],55
same,"Plant response rating, Velvetleaf",[6]; [12],70
same,Corn plant response rating,corn (Zea mays); [13],20
same,Corn plant response rating,corn (Zea mays); [14],30
same,"Plant response rating, Corn",corn (Zea mays); [15],0
same,"Plant response rating, Corn",corn (Zea mays); [16],0
same,"Plant response rating, Foxtail, Giant",[7]; [9],10
same,"Plant response rating, Foxtail, Giant",[7]; [10],40
same,"Plant response rating, Foxtail, Giant",[7]; [12],50
same,"Plant response rating, Crabgrass, Large",[8]; [9],15
same,"Plant response rating, Crabgrass, Large",[8]; [10],40
same,"Plant response rating, Crabgrass, Large",[8]; [11],40
same,"Plant response rating, Crabgrass, Large",[8]; [12],65
same,"Plant response rating, Kochia",kochia (Kochia scoparia); [9],90
same,"Plant response rating, Kochia",kochia (Kochia scoparia); [10],90
same,"Plant response rating, Kochia",kochia (Kochia scoparia); [11],90
same,"Plant response rating, Kochia",kochia (Kochia scoparia); [12],90
Cc1nn(-c2ccc(F)c(C(F)(F)F)c2)nc1Oc1ccnc(C(F)(F)F)c1 [Compound 147],"Plant response rating, Oat, Wild",wild oat (Avena fatua); [17],60
same,"Plant response rating, Oat, Wild",wild oat (Avena fatua); [18],70
same,"Plant response rating, Oat, Wild",wild oat (Avena fatua); [19],85
same,"Plant response rating, Oat, Wild",wild oat (Avena fatua); [20],95
same,"Plant response rating, Soybean",soybean (Glycine max); [18],20
same,"Plant response rating, Soybean",soybean (Glycine max); [19],20
same,"Plant response rating, Soybean",soybean (Glycine max); [20],35
same,"Foxtail, Giant plant response rating",[1]; [13],70
same,"Foxtail, Giant plant response rating",[1]; [14],80
same,"Plant response rating, Foxtail, Giant",[1]; [15],100
same,"Plant response rating, Foxtail, Giant",[1]; [16],100
same,"Plant response rating, Wheat",[2]; [18],5
same,"Plant response rating, Wheat",[2]; [19],30
same,"Plant response rating, Wheat",[2]; [20],45
same,"Plant response rating, Pigweed",[3]; [17],100
same,"Plant response rating, Pigweed",[3]; [18],100
same,"Plant response rating, Pigweed",[3]; [19],100
same,"Plant response rating, Pigweed",[3]; [20],100
same,"Crabgrass, Large plant response rating",[4]; [13],80
same,"Crabgrass, Large plant response rating",[4]; [14],90
same,"Plant response rating, Crabgrass, Large",[4]; [15],100
same,"Plant response rating, Crabgrass, Large",[4]; [16],100
same,"Plant response rating, Ragweed",[5]; [17],25
same,"Plant response rating, Ragweed",[5]; [18],40
same,"Plant response rating, Ragweed",[5]; [19],70
same,"Plant response rating, Ragweed",[5]; [20],80
same,"Plant response rating, Velvetleaf",[6]; [17],25
same,"Plant response rating, Velvetleaf",[6]; [18],55
same,"Plant response rating, Velvetleaf",[6]; [19],60
same,"Plant response rating, Velvetleaf",[6]; [20],100
same,Corn plant response rating,corn (Zea mays); [13],30
same,Corn plant response rating,corn (Zea mays); [14],40
same,"Plant response rating, Corn",corn (Zea mays); [15],10
same,"Plant response rating, Corn",corn (Zea mays); [16],30
same,"Plant response rating, Foxtail, Giant",[7]; [17],85
same,"Plant response rating, Foxtail, Giant",[7]; [18],98
same,"Plant response rating, Foxtail, Giant",[7]; [19],100
same,"Plant response rating, Foxtail, Giant",[7]; [20],100
same,"Plant response rating, Crabgrass, Large",[8]; [17],98
same,"Plant response rating, Crabgrass, Large",[8]; [18],100
same,"Plant response rating, Crabgrass, Large",[8]; [19],100
same,"Plant response rating, Crabgrass, Large",[8]; [20],100
same,"Plant response rating, Kochia",kochia (Kochia scoparia); [17],35
same,"Plant response rating, Kochia",kochia (Kochia scoparia); [18],40
same,"Plant response rating, Kochia",kochia (Kochia scoparia); [19],80
same,"Plant response rating, Kochia",kochia (Kochia scoparia); [20],85
CCCc1nn(-c2ccc(F)cc2)nc1Cc1ccnc(C(F)(F)F)c1 [Compound 153],"Plant response rating, Oat, Wild",wild oat (Avena fatua); [9],35
same,"Plant response rating, Oat, Wild",wild oat (Avena fatua); [10],50
same,"Plant response rating, Oat, Wild",wild oat (Avena fatua); [11],70
same,"Plant response rating, Oat, Wild",wild oat (Avena fatua); [12],85
same,"Plant response rating, Soybean",soybean (Glycine max); [9],55
same,"Plant response rating, Soybean",soybean (Glycine max); [10],70
same,"Plant response rating, Soybean",soybean (Glycine max); [11],70
same,"Plant response rating, Soybean",soybean (Glycine max); [12],85
same,"Plant response rating, Soybean",soybean (Glycine max); [17],20
same,"Plant response rating, Soybean",soybean (Glycine max); [18],20
same,"Plant response rating, Soybean",soybean (Glycine max); [19],35
same,"Plant response rating, Soybean",soybean (Glycine max); [20],35
same,"Plant response rating, Foxtail, Giant",[1]; [13],90
same,"Foxtail, Giant plant response rating",[1]; [14],100
same,"Plant response rating, Foxtail, Giant",[1]; [15],100
same,"Plant response rating, Foxtail, Giant",[1]; [16],100
same,"Plant response rating, Wheat",[2]; [9],10
same,"Plant response rating, Wheat",[2]; [10],30
same,"Plant response rating, Wheat",[2]; [11],30
same,"Plant response rating, Wheat",[2]; [12],30
same,"Plant response rating, Wheat",[2]; [18],35
same,"Plant response rating, Wheat",[2]; [19],60
same,"Plant response rating, Wheat",[2]; [20],60
same,"Plant response rating, Pigweed",[3]; [9],95
same,"Plant response rating, Pigweed",[3]; [10],95
same,"Plant response rating, Pigweed",[3]; [11],98
same,"Plant response rating, Pigweed",[3]; [12],98
same,"Plant response rating, Pigweed",[3]; [17],100
same,"Plant response rating, Pigweed",[3]; [18],100
same,"Plant response rating, Pigweed",[3]; [19],100
same,"Plant response rating, Pigweed",[3]; [20],100
same,"Plant response rating, Crabgrass, Large",[4]; [13],100
same,"Crabgrass, Large plant response rating",[4]; [14],100
same,"Plant response rating, Crabgrass, Large",[4]; [15],100
same,"Plant response rating, Crabgrass, Large",[4]; [16],100
same,"Plant response rating, Ragweed",[5]; [9],55
same,"Plant response rating, Ragweed",[5]; [10],55
same,"Plant response rating, Ragweed",[5]; [11],80
same,"Plant response rating, Ragweed",[5]; [12],85
same,"Plant response rating, Ragweed",[5]; [17],5
same,"Plant response rating, Ragweed",[5]; [18],10
same,"Plant response rating, Ragweed",[5]; [19],80
same,"Plant response rating, Ragweed",[5]; [20],80
same,"Plant response rating, Velvetleaf",[6]; [9],50
same,"Plant response rating, Velvetleaf",[6]; [10],60
same,"Plant response rating, Velvetleaf",[6]; [11],65
same,"Plant response rating, Velvetleaf",[6]; [12],95
same,"Plant response rating, Velvetleaf",[6]; [18],85
same,"Plant response rating, Velvetleaf",[6]; [19],95
same,"Plant response rating, Velvetleaf",[6]; [20],100
same,"Plant response rating, Corn",corn (Zea mays); [13],60
same,Corn plant response rating,corn (Zea mays); [14],80
same,"Plant response rating, Corn",corn (Zea mays); [15],70
same,"Plant response rating, Corn",corn (Zea mays); [16],80
same,"Plant response rating, Foxtail, Giant",[7]; [9],45
same,"Plant response rating, Foxtail, Giant",[7]; [10],80
same,"Plant response rating, Foxtail, Giant",[7]; [11],90
same,"Plant response rating, Foxtail, Giant",[7]; [12],95
same,"Plant response rating, Foxtail, Giant",[7]; [17],100
same,"Plant response rating, Foxtail, Giant",[7]; [18],100
same,"Plant response rating, Foxtail, Giant",[7]; [19],100
same,"Plant response rating, Foxtail, Giant",[7]; [20],100
same,"Plant response rating, Crabgrass, Large",[8]; [9],50
same,"Plant response rating, Crabgrass, Large",[8]; [10],55
same,"Plant response rating, Crabgrass, Large",[8]; [11],80
same,"Plant response rating, Crabgrass, Large",[8]; [12],90
same,"Plant response rating, Crabgrass, Large",[8]; [17],100
same,"Plant response rating, Crabgrass, Large",[8]; [18],100
same,"Plant response rating, Crabgrass, Large",[8]; [19],100
same,"Plant response rating, Crabgrass, Large",[8]; [20],100
same,"Plant response rating, Kochia",kochia (Kochia scoparia); [9],90
same,"Plant response rating, Kochia",kochia (Kochia scoparia); [10],90
same,"Plant response rating, Kochia",kochia (Kochia scoparia); [11],90
same,"Plant response rating, Kochia",kochia (Kochia scoparia); [12],90
